pIC50: −log10 of the molar value.
Test system: SNU-16 cells
Experiment: Inhibition of FGFR2-dependent cell growth (Cell-titer Glo, 72 hrs)
Details: Homo sapiens, SNU-16, 72 h, read-out: SNU16 IC50 values

In the case of `C=CC(=O)N1CCN(CCCn2c(=O)c(-c3c(Cl)c(OC)cc(OC)c3Cl)cc3cnc(NC4COC4)nc32)CC1` [Example 66, 8-(3-(4-acryloylpiperazin-1-yl)propyl)-6-(2,6-dichloro-3,5-dimethoxyphenyl)-2-(oxetan-3-ylamino)pyrido[2,3-d]pyrimidin-7(8H)-one], the pIC50 was under 5.30.

From US9567334B2, “Quinolone derivatives as fibroblast growth factor receptor inhibitors” (Principia Biopharma, Inc., priority 2014, dated 2017)
